In the oligonucleotide strings, read from the 5' end, every base follows the letter of its sugar. An asterisk marks phosphorothioate; unmarked linkages are phosphodiester. Other units and linkages are bracketed, terminal groups are in braces. A string of capitals states the bases alone. e = 2'-O-(2-methoxyethyl) (MOE); [5mC] = 5-methylcytosine; d = 2'-deoxy (DNA)
Test system: mouse Factor XI mRNA
Test: Cross-reactive antisense inhibition in primary mouse hepatocytes, 100 nM (Example 9)
Assay type: cell-based
Settings: approx. 24 h, percent inhibition relative to untreated control cells
Method: Antisense oligonucleotides targeted to a murine Factor XI nucleic acid were tested for their effects on Factor XI mRNA in vitro. Cultured primary mouse hepatocytes at a density of 10,000 cells per well were treated with 100 nM antisense oligonucleotide. After a treatment period of approximately 24 hours, RNA was isolated from the cells and mouse Factor XI mRNA levels were measured by quantitative real-time PCR. Factor XI mRNA levels were adjusted according to total RNA content, as measured by RIBOGREEN®. Results are presented as percent inhibition of Factor XI, relative to untreated control cells.
The chimeric antisense oligonucleotides in Tables 16 were designed as 5-10-5 MOE gapmers. The gapmers are 20 nucleotides in length, wherein the central gap segment is comprised of 10 2′-deoxynucleotides and is flanked on both sides (in the 5′ and 3′ directions) by wings comprising 5 nucleotides each. Each nucleotide in the 5′ wing segment and each nucleotide in the 3′ wing segment has a 2′-MOE modification. The internucleoside linkages throughout each gapmer are phosphorothioate (P═S) linkages. All cytidine residues throughout each gapmer are 5-methylcytidines. “Mouse target start site” indicates the 5′-most nucleotide to which the gapmer is targeted. “Mouse target stop site” indicates the 3′-most nucleotide to which the gapmer is targeted. All the mouse oligonucleotides listed show cross-reactivity between the mouse Factor XI mRNA (GENBANK Accession No. NM_028066.1), incorporated herein as SEQ ID NO: 6 and the human Factor XI mRNA (GENBANK Accession No. NM_000128.3), incorporated herein as SEQ ID NO: 1. “Human Target Start Site” indicates the 5′-most nucleotide in the human mRNA (GENBANK Accession No. NM_000128.3) to which the antisense oligonucleotide is targeted. “Human Target Stop Site” indicates the 3′-most nucleotide in the human mRNA (GENBANK Accession No. NM_000128.3) to which the antisense oligonucleotide is targeted. “Number of mismatches” indicates the mismatches between the mouse oligonucleotide and the human mRNA sequence.

Substance | Inhibition of mouse Factor XI mRNA levels (column headed SEQ ID No.)
404050 (antisense eT*eG*e[5mC]*eT*eT*dG*dA*dA*dG*dG*dA*dA*dT*dA*dT*e[5mC]*e[5mC]*eA*eG*eA) [compound 404050] | 82
404054 (antisense eT*eA*eG*eT*eT*d[5mC]*dA*dT*dG*d[5mC]*d[5mC]*d[5mC]*dT*dT*d[5mC]*eA*eT*eG*eT*e[5mC]) [compound 404054] | 45
404055 (antisense eT*eG*eT*eT*eA*dT*dA*dG*dT*dT*d[5mC]*dA*dT*dG*d[5mC]*e[5mC]*e[5mC]*eT*eT*e[5mC]) [compound 404055] | 27
404066 (antisense eA*eA*eT*eG*eT*d[5mC]*d[5mC]*d[5mC]*dT*dG*dA*dT*dA*d[5mC]*dA*eA*eG*e[5mC]*e[5mC]*eA) [compound 404066] | 37
404067 (antisense eG*eG*eG*eA*eA*dA*dA*dT*dG*dT*d[5mC]*d[5mC]*d[5mC]*dT*dG*eA*eT*eA*e[5mC]*eA) [compound 404067] | 39
